In ChEMBL document CHEMBL6103615, “Thymidylate Kinase-Targeted Antimicrobial Peptides via Phage Display: A Novel Strategy against Gram-Negative Bacteria” (J Med Chem, 2025):
≈ marks a conversion by molar mass, not a printed value. Calls of active or inactive are those of the source. The rule behind the calls is not given here.

Legend:
[1] = Cytotoxicity against mouse RAW264.7 cells assessed as cell viability at 128 uM incubated for 4 hrs by MTT assay relative to control; type: toxicity, cell-based; details: read-out: Activity
[2] = Toxicity in ICR mouse assessed as hunchback posture at 40 mg/kg, ip measured for 30 to 4 hrs; type: organism-based; details: in vivo, time 30-4 hrs
[3] = Toxicity in ICR mouse assessed as change in serum ALP level at 10 to 40 mg/kg, ip treated for 3 days consecutively; type: organism-based; details: in vivo, 72 h, dose 10-40 mg/kg, time 3 day
[4] = system: Escherichia coli; test: Antibacterial activity against Escherichia coli K88 infected in ICR mouse model of peritoneal sepsis assessed as reduction in blood HMGB1 level at 20 mg/kg, ip measured after 10 hrs; type: functional, organism-based
[5] = Selectivity ratio of MIC for antibacterial activity against Lactobacillus plantarum 8014 to MIC for antibacterial activity against Escherichia coli K90; type: functional
[6] = system: Escherichia coli; test: Antibacterial activity against Escherichia coli K88 infected in ICR mouse model of peritoneal sepsis assessed as reduction in blood IL-6 level at 20 mg/kg, ip measured after 10 hrs; type: functional, organism-based
[7] = system: Escherichia coli; test: Antibacterial activity against Escherichia coli K88 infected in ICR mouse model of peritoneal sepsis assessed as reduction in blood TNF-alpha level at 20 mg/kg, ip measured after 10 hrs; type: functional, organism-based
[8] = system: Escherichia coli; test: Antibacterial activity against Escherichia coli K88 infected in ICR mouse model of peritoneal sepsis assessed as reduction in necrosis in renal tubular epithelial cells at 20 mg/kg, ip measured after 10 hrs by H and E staining based analysis; type: functional, organism-based
[9] = system: Escherichia coli; test: Antibacterial activity against Escherichia coli K88 infected in ICR mouse model of peritoneal sepsis assessed as reduction in blood IL-1beta level at 20 mg/kg, ip measured after 10 hrs; type: functional, organism-based
[10] = system: Staphylococcus epidermidis; test: Antibacterial activity against Staphylococcus epidermidis 12228 incubated for 12 to 18 hrs by microbroth dilution method; type: functional; details: time 12-18 hrs
[11] = Selectivity ratio of MIC for antibacterial activity against Escherichia coli 078 to MIC for antibacterial activity against Escherichia coli K101; type: functional
[12] = system: Escherichia coli; test: Induction of ROS generation in Escherichia coli K88 assessed as increase in fluorescence intensity incubated for 1 hr by DCFH-DA dye based analysis; type: functional, organism-based
[13] = system: Escherichia coli; test: Antibacterial activity against Escherichia coli K88 infected in ICR mouse model of peritoneal sepsis assessed as bacterial load reduction in lung at 20 mg/kg, ip measured after 10 hrs; type: functional, organism-based
[14] = system: Lactiplantibacillus plantarum; test: Antibacterial activity against Lactobacillus plantarum 8014 incubated for 12 to 18 hrs by microbroth dilution method; type: functional; details: time 12-18 hrs
[15] = system: Bacteria; test: Antibacterial activity against bacterial cells at 1 to 128 uM in presence of NaCl; type: functional, organism-based; details: dose 1-128 µM
[16] = Selectivity ratio of MIC for antibacterial activity against Lactobacillus rhamnosus 7469 to MIC for antibacterial activity against Escherichia coli K89; type: functional
[17] = Selectivity ratio of MIC for antibacterial activity against Lactococcus lactis NZ9000 to MIC for antibacterial activity against Escherichia coli K88; type: functional
[18] = system: Escherichia coli; test: Antibacterial activity against Escherichia coli K88 infected in ICR mouse model of peritoneal sepsis assessed as reduction in granulocyte infiltration in lungs at 20 mg/kg, ip measured after 10 hrs by H and E staining based analysis; type: functional, organism-based
[19] = system: Escherichia coli; test: Induction of morphological changes in Escherichia coli K88 assessed as membrane folding at 2 uM incubated for 1 hr by SEM analysis; type: functional, organism-based
[20] = Toxicity in ICR mouse assessed as change in serum TBIL level at 10 to 40 mg/kg, ip treated for 3 days consecutively; type: organism-based; details: in vivo, 72 h, dose 10-40 mg/kg, time 3 day
[21] = system: Escherichia coli; test: Antibacterial activity against Escherichia coli K88 infected in ICR mouse model of peritoneal sepsis assessed as bacterial load reduction in kidney at 20 mg/kg, ip measured after 10 hrs; type: functional, organism-based
[22] = Effect on secondary structure of compound in PBS assessed as formation of alpha-helical conformation at 100 uM by CD analysis; type: physicochemical; details: buffer
[23] = Antibacterial activity against Salmonella choleraesuis 21493 incubated for 12 to 18 hrs by microbroth dilution method; type: functional, Salmonella enterica subsp. enterica serovar Choleraesuis; details: Salmonella enterica, time 12-18 hrs
[24] = system: Bacteria; test: Antibacterial activity against bacterial cells at 1 to 64 uM incubated for 4 hrs in presence of 50 percent serum; type: functional, organism-based; details: dose 1-64 µM
[25] = system: Bacteria; test: Antibacterial activity against bacterial cells at pH 4 to 10; type: functional
[26] = system: Escherichia coli; test: Antibacterial activity against Escherichia coli 078 incubated for 12 to 18 hrs by microbroth dilution method; type: functional; details: time 12-18 hrs
[27] = system: Escherichia coli; test: Induction of morphological changes in Escherichia coli K88 assessed as membrane permeability at edges at 2 uM incubated for 1 hr by TEM analysis; type: functional, organism-based
[28] = Toxicity in ICR mouse assessed as change in serum BUN level at 10 to 40 mg/kg, ip treated for 3 days consecutively; type: organism-based; details: in vivo, 72 h, dose 10-40 mg/kg, time 3 day
[29] = system: Escherichia coli; test: Antibacterial activity against Escherichia coli K88 incubated for 12 to 18 hrs by microbroth dilution method; type: functional; details: time 12-18 hrs
[30] = system: Salmonella typhimurium; test: Antibacterial activity against Salmonella typhimurium 7731 incubated for 12 to 18 hrs by microbroth dilution method; type: functional, Salmonella enterica subsp. enterica serovar Typhimurium; details: Salmonella enterica, time 12-18 hrs
[31] = system: Staphylococcus aureus; test: Antibacterial activity against Staphylococcus aureus 25923 incubated for 12 to 18 hrs by microbroth dilution method; type: functional; details: time 12-18 hrs
[32] = system: Escherichia coli; test: Antibacterial activity against Escherichia coli K88 infected in ICR mouse model of peritoneal sepsis assessed as reduction in edema in renal tubular epithelial cells at 20 mg/kg, ip measured after 10 hrs by H and E staining based analysis; type: functional, organism-based
[33] = system: Pseudomonas aeruginosa; test: Antibacterial activity against Pseudomonas aeruginosa PAO1 incubated for 12 to 18 hrs by microbroth dilution method; type: functional; details: time 12-18 hrs
[34] = system: Escherichia coli; test: Antibacterial activity against Escherichia coli 1515 incubated for 12 to 18 hrs by microbroth dilution method; type: functional; details: time 12-18 hrs
[35] = Toxicity in ICR mouse assessed as change in serum ALT level at 10 to 40 mg/kg, ip treated for 3 days consecutively; type: organism-based; details: in vivo, 72 h, dose 10-40 mg/kg, time 3 day
[36] = Selectivity ratio of MIC for antibacterial activity against Enterococcus faecalis 29212 to MIC for antibacterial activity against Escherichia coli K95; type: functional
[37] = system: Escherichia coli; test: Induction of resistance development in Escherichia coli K88 at sub-MIC measured after 20 passages; type: functional, organism-based

In the case of CC[C@@H](C)[C@H](NC(=O)CNC(=O)[C@@H]1CCCN1C(=O)[C@H](CCCCN)NC(=O)[C@H](Cc1c[nH]c2ccccc12)NC(=O)[C@@H](NC(=O)[C@H](CCCCN)NC(=O)[C@H](CCCCN)NC(=O)[C@H](Cc1c[nH]c2ccccc12)NC(=O)[C@H](Cc1ccc(O)cc1)NC(=O)[C@H](CCCCN)NC(=O)[C@@H](NC(=O)[C@H](CC(C)C)NC(=O)[C@H](CC(N)=O)NC(=O)CNC(=O)[C@@H](N)CO)[C@@H](C)O)[C@@H](C)CC)C(=O)N[C@@H](CCCCN)C(=O)N[C@@H](CCCCN)C(=O)N[C@@H](Cc1c[nH]c2ccccc12)C(=O)N[C@H](C(=O)N[C@@H](CCCCN)C(=O)O)[C@H](C)CC, the viability at 4 h, 128 µM [1] is reported as > 80%, the Activity [2] is reported as “Toxic” and the Activity [3] is reported as “Non-toxic”. For the same molecule, the Activity [4] was “Active”, the Ratio [5] was >2 and the Activity [6] was “Active”. For the same molecule, the Activity [7] was “Active”, the Activity [8] was “Active” and the Activity [9] was “Active”. The MIC [10] was 128 µM (≈ 333 µg/mL), the Ratio [11] was >2 and the Activity [12] was “Dose-dependent-effect”. For the same molecule, the Activity [13] was “Active; Activity Comparable To Colistin Treatment”, the MIC [14] was 128 µM (≈ 333 µg/mL) and the Activity [15] was “inactive”. For the same molecule, the Ratio [16] was >2, the Ratio [17] was >2 and the Activity [18] was “Active”. The Activity [19] was “Active”, the Activity [20] was “Non-toxic” and the Activity [21] was “Active; Activity Comparable To Colistin Treatment”. The Activity [22] was “Active”, the MIC [23] was 8 µM (≈ 20.8 µg/mL) and the Activity [24] was “Active”. The MIC [25] was 2 µM (≈ 5.21 µg/mL), the MIC [26] was 8 µM (≈ 20.8 µg/mL) and the Activity [27] was “Active”. The Activity [28] was “Non-toxic”, the MIC [29] was 2 µM (≈ 5.21 µg/mL) and the MIC [30] was 4 µM (≈ 10.4 µg/mL). The MIC [31] was 128 µM (≈ 333 µg/mL), the Activity [32] was “Active” and the MIC [33] was 4 µM (≈ 10.4 µg/mL). The MIC [34] was 4 µM (≈ 10.4 µg/mL), the Activity [35] was “Non-toxic” and the Ratio [36] was >2. The Activity [37] was “inactive”.
